The values below come from publication PMC3749252 (Nature chemical biology, 2013).

Experiment [1] concerns the target T1, mouse Smoothened (mSmo) (Mus musculus, UniProt P56726).
T1 sequence (P56726 32-236): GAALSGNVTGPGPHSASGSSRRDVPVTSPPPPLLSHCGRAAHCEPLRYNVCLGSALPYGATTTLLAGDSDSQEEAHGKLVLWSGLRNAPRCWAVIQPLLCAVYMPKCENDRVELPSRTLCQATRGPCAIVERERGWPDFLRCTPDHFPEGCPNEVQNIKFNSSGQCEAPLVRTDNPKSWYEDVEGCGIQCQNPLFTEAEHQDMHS
The experiment is described as follows: competition of binding to 20-OHC affinity beads, immunoblot. On the technique in general: Immunoblotting shows a protein as a band on a membrane.

Experiment [2] concerns the target T1, mouse Smoothened (mSmo). As to the kind of experiment: competition of 22-NHC bead binding.

Consider `C[C@H](CCCC(C)(C)O)[C@H]1CC[C@H]2[C@@H]3CC=C4C[C@@H](O)CC[C@]4(C)[C@H]3CC[C@]12C` [25-OHC], for which the “competition of binding to 20-OHC affinity beads, immunoblot” value on mouse Smoothened (mSmo) [1] was “binding of mSmo and mSmoCRD to 20-OHC beads was competed by the active oxysterol 25-OHC”.

As for `CC(C)CCC[C@](C)(O)[C@H]1CC[C@H]2[C@@H]3CC=C4C[C@@H](O)CC[C@]4(C)[C@H]3CC[C@@]21C` [20(S)-hydroxycholesterol], the “competition of 22-NHC bead binding; 20-OHC affinity beads, immunoblot” value on mouse Smoothened (mSmo) [2] was “Binding of mSmoCRD to 22-NHC beads was competed by 20-OHC and 20-OHC-Pent, but not by 7-OHC”.
